# Measured values: patent US10940150B2, “Thymine derivatives and quinazoline-dione derivatives for the inhibition of HSP27” (TECHNISCHE UNIVERSITAET DRESDEN, priority 2014, dated 2021)
# Target: HSP27 (Homo sapiens, UniProt P04792)
# Assay: Capillary electrophoresis of heat-denatured citrate synthase protein precipitates
# Type: biochemical
# Conditions: for Efficacy compared with BVDU: 10 μmol/L vs 750 μmol/L BVDU, 43° C. for 70 minutes (Table 3); for Rel. quantity of protein prec. CS: 10 μmol/L, 43° C. for 70 minutes, relative to 750 μmol/L BVDU = 1 (Table 3)
# Procedure: (§1) Since the heat-denatured protein aggregates of the citrate synthase from Example 1 are not water-soluble, these can be separated completely from the supernatant by means of centrifugation at room temperature at 16,000×g, 10 min. By using capillary electrophoresis, the compositions of the separated precipitates can be shown and quantified. The relative quantity of protein of precipitated citrate synthase serves as a measure of the efficacy of the test substances.
# (§2) In each case, 481 nmol/L HSP27 and 1.44 μmol/L citrate synthase in 40 mmol/L HEPES buffer, pH 7.4, were employed. The relative quantity of protein of the precipitated citrate synthase in each case was normalized using a defined quantity of BSA as internal standard. The relative quantity of protein that precipitated when using 750 μmol/L BVDU was set at 1. The other test substances (2 representatives of phenothiazine derivatives of general formula (V), 2 representatives of purine derivatives of formula (I) or (II)) were each employed at a concentration of 10 μmol/L.
# as §1, with “Example 2” for “Example 1”
# as §2, with “nM” for “nmol/L”, “thymine” for “purine”, “were” for “were each”, “μmol/L in each case.” for “μmol/L.”
# Otherwise, the experiments were performed as described above: […]
# HSP27, sequence (P04792 whole entry): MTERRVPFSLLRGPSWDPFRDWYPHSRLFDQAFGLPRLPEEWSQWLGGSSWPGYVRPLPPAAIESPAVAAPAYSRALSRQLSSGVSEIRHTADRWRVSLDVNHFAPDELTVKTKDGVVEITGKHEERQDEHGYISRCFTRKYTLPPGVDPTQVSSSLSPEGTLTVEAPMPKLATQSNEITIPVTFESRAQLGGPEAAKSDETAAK
Efficacy compared with BVDU [x],Rel. quantity of protein prec. CS,Compound
60.88,0.81,"Cc1cn(C2C[C@H](n3cc(-c4cccc(Br)c4)nn3)[C@@H](CO)O2)c(=O)[nH]c1=O (stereo partly drawn) [1-[(4S,5S)-4-[4-(3-Bromophenyl)-1H-1,2,3-triazol-1-yl]-5-(hydroxymethyl)oxolan-2-yl]-5-methyl-1,2,3,4-tetrahydropyrimidine-2,4-dione]"
48.14,0.64,"Cc1cn(C2C[C@H](n3cc(-c4ccc(Br)cc4)nn3)[C@@H](CO)O2)c(=O)[nH]c1=O (stereo partly drawn) [1-[(4S,5S)-4-[4-(4-Bromophenyl)-1,2,3-triazol-1-yl]-5-(hydroxymethyl)oxolan-2-yl]-5-methyl-3H-pyrimidine-2,4-dione]"
55.89,0.75,"COc1ccc(-c2cn([C@H]3CC(n4cc(C)c(=O)[nH]c4=O)O[C@@H]3CO)nn2)cc1 (stereo partly drawn) [1-[(4S,5S)-5-(Hydroxymethyl)-4-[4-(4-methoxyphenyl)-1,2,3-triazol-1-yl]oxolan-2-yl]-5-methyl-3H-pyrimidine-2,4-dione]"
57.08,0.76,"CCCCc1cn([C@H]2C[C@H](n3cc(C)c(=O)[nH]c3=O)O[C@@H]2CO)nn1 [3′-(4-Butyl-1H-1,2,3-triazol-1-yl)-3′-deoxythymidine]"
52.57,0.70,"CCCCCc1cn([C@H]2C[C@H](n3cc(C)c(=O)[nH]c3=O)O[C@@H]2CO)nn1 [3′-Deoxy-3′-(4-pentyl-1H-1,2,3-triazol-1-yl)thymidine]"
59.07,0.79,"Cc1cn([C@H]2C[C@H](n3cc(-c4ccccc4)nn3)[C@@H](CO)O2)c(=O)[nH]c1=O [3′-Deoxy-3′-(4-phenyl-1H-1,2,3-triazol-1-yl)thymidine]"
59.59,0.79,"CCCc1cn([C@H]2C[C@H](n3cc(C)c(=O)[nH]c3=O)O[C@@H]2CO)nn1 [3′-Deoxy-3′-(4-propyl-1H-1,2,3-triazol-1-yl)thymidine]"
46.01,0.61,"Cc1cn([C@H]2C[C@H](n3cc(C(C)(C)C)nn3)[C@@H](CO)O2)c(=O)[nH]c1=O [3′-Deoxy-3′-[4-(2-methyl-2-propanyl)-1H-1,2,3-triazol-1-yl]thymidine]"
55.67,0.74,"Cc1cn([C@H]2C[C@H](n3cc(CCc4ccccc4)nn3)[C@@H](CO)O2)c(=O)[nH]c1=O [3′-Deoxy-3′-[4-(2-phenylethyl)-1H-1,2,3-triazol-1-yl]-thymidine]"
62.86,0.84,"Cc1cn([C@H]2C[C@H](n3cc(-c4ccccn4)nn3)[C@@H](CO)O2)c(=O)[nH]c1=O [3′-Deoxy-3′-[4-(2-pyridinyl)-1H-1,2,3-triazol-1]-yl]thymidine]"
64.21,0.86,"Cc1cn([C@H]2C[C@H](n3cc(-c4ccc(Cl)c(Cl)c4)nn3)[C@@H](CO)O2)c(=O)[nH]c1=O [3′-Deoxy-3′-[4-(3,4-dichlorophenyl)-1H-1,2,3-triazol-1-yl]-thymidine]"
49.69,0.66,"Cc1cn([C@H]2C[C@H](n3cc(-c4ccc(F)cc4)nn3)[C@@H](CO)O2)c(=O)[nH]c1=O [3′-Deoxy-3′-[4-(4-fluorophenyl)-1H-1,2,3-triazol-1-yl]-thymidine]"
50.53,0.67,"Cc1cn([C@H]2C[C@H](n3cc(-c4ccc(Cl)cc4)nn3)[C@@H](CO)O2)c(=O)[nH]c1=O [3′-[4-(4-Chlorophenyl)-1H-1,2,3-triazol-1-yl]-3′-deoxythymidine]"
49.63,0.66,"Cc1cn([C@H]2C[C@H](n3cc(CC4CCCC4)nn3)[C@@H](CO)O2)c(=O)[nH]c1=O [3′-[4-(Cyclopentylmethyl)-1H-1,2,3-triazol-1-yl]-3′-deoxythymidine]"
58.97,0.79,"Cc1cn(CCCCNC(=O)C(c2ccccc2)c2ccccc2)c(=O)[nH]c1=O [N-[4-(5-Methyl-2,4-dioxo-3H-pyrimidin-1-yl)butyl]-2,2-diphenylacetamide]"
50.52,0.67,"Cc1cn(CCCCNC(=O)Cc2ccc(-c3ccccc3)cc2)c(=O)[nH]c1=O [N-[4-(5-Methyl-2,4-dioxo-3H-pyrimidin-1-yl)butyl]-2-(4-phenylphenyl)acetamide]"
56.36,0.75,"Cc1cn(CCCCNC(=O)Cc2ccc3ccccc3c2)c(=O)[nH]c1=O [N-[4-(5-Methyl-2,4-dioxo-3H-pyrimidin-1-yl)butyl]-2-(naphthalen-2-yl)acetamide]"
43.30,0.58,"Cc1cn(CCCCNC(=O)C2c3ccccc3-c3ccccc32)c(=O)[nH]c1=O [N-[4-(5-Methyl-2,4-dioxo-3H-pyrimidin-1-yl)butyl]-9H-fluorene-9-carboxamide]"
51.16,0.68,"Cc1cn(CCCCNC(=O)C2c3ccccc3Oc3ccccc32)c(=O)[nH]c1=O [N-[4-(5-Methyl-2,4-dioxo-3H-pyrimidin-1-yl)butyl]-9H-xanthene-9-carboxamide]"
66.15,0.88,"O=C(Cc1ccc(-c2ccccc2)cc1)NC/C=C\Cn1ccc(=O)[nH]c1=O [N-[(2Z)-4-(2,4-Dioxo-3H-pyrimidin-1-yl)but-2-en-1-yl]-2-(4-phenylphenyl)acetamide]"
86.25,1.15,"O=C(Cc1ccc2ccccc2c1)NC/C=C\Cn1ccc(=O)[nH]c1=O [N-[(2Z)-4-(2,4-Dioxo-3H-pyrimidin-1-yl)but-2-en-1-yl]-2-(naphthalen-2-yl)acetamide]"
63.38,0.85,"O=C(NC/C=C\Cn1ccc(=O)[nH]c1=O)C1c2ccccc2OC2C=CC=CC21 (centres unmarked) [N-[(2Z)-4-(2,4-Dioxo-3H-pyrimidin-1-yl)but-2-en-1-yl]-9,9a-dihydro-4aH-xanthene-9-carboxamide]"
61.19,0.82,"Cc1cn(C/C=C\CNC(=O)C(c2ccccc2)c2ccccc2)c(=O)[nH]c1=O [N-[(2Z)-4-(5-Methyl-2,4-dioxo-3H-pyrimidin-1-yl)but-2-en-1-yl]-2,2-diphenylacetamide]"
60.44,0.81,"Cc1cn(C/C=C\CNC(=O)Cc2cccc3ccccc23)c(=O)[nH]c1=O [N-[(2Z)-4-(5-Methyl-2,4-dioxo-3H-pyrimidin-1-yl)but-2-en-1-yl]-2-(naphthalen-1-yl)acetamide]"
62.51,0.83,"Cc1cn(C/C=C\CNC(=O)Cc2ccc3ccccc3c2)c(=O)[nH]c1=O [N-[(2Z)-4-(5-Methyl-2,4-dioxo-3H-pyrimidin-1-yl)but-2-en-1-yl]-2-(naphthalen-2-yl)acetamide]"
